Assay results published in ChEMBL document CHEMBL1201862, “PubChem BioAssay data set” (2004).
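Briefly, cells in 96-well plates were exposed to five compound concentrations for 48 h, and endpoints were estimated by linear interpolation. GI50 marks 50% less growth.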 Calls of active or inactive are those of the source. Cut-off read from the data, not from the text of the source: active = GI50 up to about 1.1 µM and inactive = higher.

How the values were obtained:
Assay in all cases: DTP human tumour cell line panel, 48 h
[1] = system: NCI-H226
[2] = system: K562
[3] = system: UACC-62
[4] = system: SR
[5] = system: COLO 205
[6] = system: SF-539
[7] = system: KM12
[8] = system: ACHN
[9] = system: MOLT-4
[10] = system: SNB-19
[11] = system: SK-MEL-5
[12] = system: HT-29
[13] = system: NCI-H460
[14] = system: LOX IMVI
[15] = system: IGROV-1
[16] = system: HCT-116
[17] = system: SW-620
[18] = system: A549
[19] = system: EKVX
[20] = system: NCI/ADR-RES

Measured: GI50

COc1ccc(/C=C(\C(=C/c2ccc(OC)cc2)[N+](=O)[O-])[N+](=O)[O-])cc1
inactive: [1] 3.97 µM | [2] 3.92 µM | [3] 2.91 µM | [4] 2.03 µM | [5] 3.68 µM | [6] 2.24 µM | [7] 14.6 µM | [8] 5.96 µM | [9] 2.96 µM | [10] 10.1 µM | [11] 4.07 µM | [12] 3.39 µM | [13] 5.64 µM | [14] 2.05 µM | [15] 4.55 µM | [16] 10.2 µM | [17] 2.52 µM | [18] 22.7 µM | [19] 8.71 µM | [20] 1.93 µM

CC1(C#N)CC(C)(C)C(/C=C2/CC(C)(C)C(/C=C3/OC(=N)CC3(C)C)=N2)=N1 (stereo not given)
inactive: [1] 40.6 µM | [2] 22.5 µM | [3] 20.7 µM | [4] 28.5 µM | [5] 16.9 µM | [6] 62.2 µM | [7] 24.2 µM | [8] 21.3 µM | [9] 28.7 µM | [10] 32.7 µM | [11] 16.6 µM | [12] 27.2 µM | [13] 15.8 µM | [14] 36.2 µM | [15] 17.6 µM | [16] 28.9 µM | [17] 34.4 µM | [18] 29.5 µM | [19] 21.7 µM | [20] 18.2 µM

Clc1ccc(Cc2nc3ccccc3nc2-c2cccc(Cl)c2)cc1
inactive: [1] 20.3 µM | [2] 1.94 µM | [3] 1.86 µM | [4] 1.54 µM | [5] 2.8 µM | [6] 2.25 µM | [7] 3.48 µM | [8] 1.93 µM | [9] 2.06 µM | [10] 1.8 µM | [11] 4.91 µM | [12] 2.61 µM | [13] 16.3 µM | [14] 1.95 µM | [15] 1.95 µM | [16] 1.72 µM | [17] 1.61 µM | [18] 15.6 µM | [19] 17.5 µM | [20] 3.1 µM
